The source of these data is ChEMBL document CHEMBL1159321, “Novel acylated triterpene glycosides from Muraltia heisteria” (J Nat Prod, 2002).

In this assay the test system is HT-29. Briefly: Cytotoxicity against human HT-29 cells at 12 to 50 ug/ml. Type of assay: functional, cell-based.

Molecules are shown by their SMILES. The source made the active and inactive calls. The rule behind the calls is not given here.

Take `COc1cc(/C=C/C(=O)O[C@@H]2[C@H](O)[C@@H](O[C@@H]3O[C@@H](C)[C@H](O[C@@H]4OC[C@@H](O)[C@H](O[C@@H]5O[C@H](CO)[C@H](O[C@@H]6OC[C@H](O)[C@H](O)[C@H]6O)[C@H](O)[C@H]5O)[C@H]4O)[C@@H](O)[C@H]3O)[C@H](OC(=O)[C@]34CCC(C)(C)C[C@H]3C3=CC[C@@H]5[C@@]6(C)C[C@H](O)[C@H](O[C@@H]7O[C@H](CO)[C@@H](O)[C@H](O)[C@H]7O)[C@@](C)(C(=O)O)[C@@H]6CC[C@@]5(C)[C@]3(CO)CC4)O[C@@H]2C)cc(OC)c1OC`: the result was Active.
